{
  "source": "patent US20100260680A1",
  "about": "“NOVEL BONE MASS INCREASING AGENT” (ORIENTAL YEAST CO., LTD., priority 2007, published 2010)",
  "key": {"MC3T3-E1 cells": {"system": "MC3T3-E1 cells", "experiment": "ALP activity determination in MC3T3-E1 cells", "format": "cell-based, mouse", "settings": "for inhibition of ALP activity enhancement caused by BMP-2: 100 ng/ml BMP-2; for inhibition of ALP activity enhancement caused by peptide D: 200 μM peptide D", "experimental": "Seven days after differentiation, the culture supernatant was removed from each plate and the cells were fixed with an acetone/ethanol solution. The ALP activity was determined using p-nitrophenyl phosphate as a substrate. Specifically, a carbonate buffer (5 mM MgCl2, 50 mM NaHCO3) containing p-nitrophenyl phosphate (Nacalai) (1 mg/mL) was added to each well (100 μL/well), followed by incubation at 37° C. Then, the OD value at 405 nm was determined with the use of a microplate reader (BMG Labtech) for each well.\nCells mixed with 10% FBS+αMEM (GIBCO) were seeded on a 96-well plate (8×10^3 cells/well) and a 48-well plate (2×10^4 cells/well). The culture supernatant of each plate was replaced with 10% FBS+αMEM containing 5 mM β glycerophosphoric acid (SIGMA)+10 μg/mL sodium ascorbate (SIGMA) 48 hours later. Then, the medium was replaced with new medium every 3 or 4 days. As a control, MC3T3-E1 was cultured with the use of 10% FBS+αMEM as a maintenance medium. Upon medium replacement, a peptide was added to each plate at a concentration of 300 μM, ALP activity determination and alizarin red S staining were carried out by the method described in Example 1 on Days 7 and 21.\nMC3T3-E1 cells mixed with 10% FBS+αMEM (SIGMA) were seeded on a 96-well plate (1.5×10^4 cells/well). After 12 hours, the medium was removed therefrom and a medium containing an SB203580 p38 inhibitor (Calbiochem) was added thereto. […] Then, ALP activity determination was carried out by the method described in Example 1.\nSimilarly, rhDkk-1 (R&D) was added as a Wnt antagonist at concentrations of 0.25, 0.5, and 1 μg/ml. After 1 hour, 200 μM peptide D was added thereto, followed by culture for 5 days. Then, ALP activity determination was carried out by the method described in Example 1.\nIn addition, as described above, BMPR-IA (R&D) was added as a BMP antagonist at concentrations of 0.25 and 1 μg/ml. […] Then, ALP activity determination was carried out by the method described in Example 1. […] Based on the above results, it was likely that actions of peptide D depend on BMP induction or BMP produced constantly and spontaneously by cells.\nMC3T3-E1 cells mixed with 10% FBS+α MEM (SIGMA) were seeded on a 96-well plate (1.5×10^4 cells/well).\nFurther, peptide D and peptide E were compared with each other in terms of ALP activity enhancement actions in MC3T3-E1 cells. Peptide D and peptide E were used at concentrations of 25, 50, 100, and 200 μM for culture under the conditions described in Example 14, followed by determination of ALP activity by the method described in Example 1.\nMC3T3-E1 cells (mouse osteoblast precursor cells) mixed with 10% FBS+αMEM (SIGMA) were seeded on a 96-well plate (2×10^4 cells/well). After cell adhesion, the medium was removed therefrom, followed by ALP activity determination in the cases involving the addition of 50 and 150 μM peptide D (acetate and hydrochloride). […] On Day 5 after the addition of the individual factors, the culture supernatant was removed, followed by ALP activity determination by the method described in Example 1.\nMC3T3-E1 cells (mouse osteoblast precursor cells) mixed with 10% FBS+αMEM (SIGMA) were seeded on a 96-well plate (2×10^4 cells/well). After cell adhesion had taken place, the medium was removed therefrom, followed by determination of ALP activity in the cases involving the mixing of 5 ng/mLBMP-2 (produced by CHO cells) with 6.25, 12.5, 25, 50, and 100 μM synthetic peptide D. On Day 5 after the addition of the individual factors, the culture supernatant was removed, followed by ALP activity determination by the method described in Example 1.\nAt the end of the experiment, synergistic effects of synthetic peptide D in the form of acetate and BMP-4 (R&D) were also examined. MC3T3-E1 cells (mouse osteoblast precursor cells) mixed with 10% FBS+αMEM (SIGMA) were seeded on a 96-well plate (2×10^4 cells/well). […]"}, "RAW264 cells": {"system": "RAW264 cells", "experiment": "TRAP activity in RAW264 cells with GST-RANKL", "format": "cell-based", "experimental": "Peptide E (SEQ ID NO: 16) was prepared from peptide D with the substitution of a single amino acid. TRAP activity and ALP activity were determined to compare peptide D and peptide E in terms of effects of causing osteoclast differentiation and osteoblast differentiation. RAW264 cells mixed with 10% FBS+αMEM (SIGMA) were seeded on a 96-well plate (2×10^3 cells/well). After confirmation of cell adhesion, the medium was replaced with 10% FBS+αMEM containing 10 nM GST-RANKL (Oriental Yeast Co., Ltd.). Peptide D and peptide E were separately added thereto at concentrations of 25, 50, 100, and 200 μM, followed by culture for 4 days. After the termination of culture, 100 μL acetone/ethanol was added to each well for cell fixation, followed by drying in a draft for 30 min.\nIn order to obtain a TRAP solution buffer at a concentration of 1.5 mg/mL, a solution was prepared by adjusting p-nitrophenyl phosphate (Nacalai) with 50 mM citric acid buffer and adding a 0.2 M sodium tartrate solution in a volume 1/10 that of citric acid buffer. The obtained TRAP solution buffer was added to each well in an amount of 100 μL followed by incubation at 37° C. for 45 min. Then, a 1N NaOH solution (50 μL) was added thereto to terminate the reaction. The OD value at 405 nm was determined for each well with a microplate reader (BMG Labtech) in the same manner as in Example 1.\nRAW264 cells mixed with 10% FBS+αMEM (SIGMA) were seeded on a 96-well plate (2×10^3 cells/well). After cell adhesion had taken place, the medium was replaced with 10% FBS+αMEM containing 5 nM GST-RANKL (Oriental Yeast Co., Ltd.). Peptide D in the form of TFA, peptide D in the form of acetate, and peptide D in the form of hydrochloride with concentrations of 25 and 100 μM were separately added thereto, followed by culture for 4 days. After the completion of culture, acetone/ethanol (100 μL) was added to each well for cell fixation, followed by drying in a draft for 30 min. TRAP activity determination was carried out by the method described in Example 16. […] Peptide D in the form of hydrochloride was confirmed to have neither osteoblast differentiation activity nor osteoclastgenesis inhibition activity. However, peptide D in the form of acetate was confirmed to have higher osteoblast differentiation activity and lower osteoclastgenesis inhibition activity compared with peptide D in the form of TFA. […] It is also possible to produce modified peptide D having osteoblast differentiation activity alone or modified peptide D having osteoclastgenesis inhibition activity alone."}, "RANKL": {"molecular_target": "T1, RANKL (Homo sapiens, UniProt O14788)", "T1 sequence (O14788 140-317 limits assumed)": "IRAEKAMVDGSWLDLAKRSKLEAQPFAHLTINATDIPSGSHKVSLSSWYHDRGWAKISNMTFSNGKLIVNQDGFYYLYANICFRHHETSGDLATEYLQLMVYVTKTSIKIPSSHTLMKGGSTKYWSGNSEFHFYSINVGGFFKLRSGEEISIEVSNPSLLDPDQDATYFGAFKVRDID", "settings": "Aoki et al., J Clin Invest 116: 1525, 2006; cited from earlier work"}, "C57BL/6N mice": {"system": "C57BL/6N mice", "experiment": "RANKL administration test, bone morphology measurement", "format": "in vivo, mouse", "experimental": "GST-RANKL was intraperitoneally administered at 57 nmol (low dose) or at 426 nmol (high dose) to 7-week-old female C57BL/6N mice (10 individuals) every 24 hours for three times. The mice were dissected 1.5 hours after the third administration. For comparison, a group to which PBS had been administered was used as a control.\nThe following organs were collected from each dissected mouse: femur, tibia, cerebrum, lungs, heart, liver, thymus, spleen, kidneys, and skin. Naturally occurring lesions were observed by HE staining of the cerebrum, the lungs, the heart, the liver, the thymus, the spleen, the kidneys, and the skin."}, "[1]": {"settings": "compared at concentrations with almost comparable effects"}, "[2]": {"settings": "high dose 426 nmol i.p. every 24 hours, three times"}},
  "note": "Bridges are numbered along the chain shown (N, C = ends). Where no end group is shown, it is not given here.",
  "data": [
    {"molecule": "C[S+]([O-])c1ccc(-c2nc(-c3ccncc3)c(-c3ccc(F)cc3)[nH]2)cc1", "note": "(centres unmarked) [SB203580, reference compound]", "values": [
      {"measurement": "inhibition of ALP activity enhancement caused by BMP-2", "setting": "MC3T3-E1 cells; SB203580 1 μM, 5 days", "result": "significant inhibition of ALP activity enhancement was not observed"},
      {"measurement": "inhibition of ALP activity enhancement caused by peptide D", "setting": "MC3T3-E1 cells; SB203580 1 μM, 5 days", "result": "Significant inhibition"},
      {"measurement": "inhibition of ALP activity enhancement caused by peptide D", "setting": "MC3T3-E1 cells; SB203580 10 μM, 5 days", "result": "complete inhibition"},
      {"measurement": "inhibition of ALP activity enhancement caused by BMP-2", "setting": "MC3T3-E1 cells; SB203580 at a concentration of 10, 5 days", "result": "weak effects of inhibition"}
    ]},
    {"molecule": "peptide E: SEQ ID NO: 16, prepared from peptide D with the substitution of a single amino acid; cyclic, Cys2-Cys8 disulfide (YCWSQNLCY; disulfide 2-8)", "values": [
      {"measurement": "TRAP activity", "setting": "RAW264 cells; 25, 50, 100 and 200 μM, 10 nM GST-RANKL, 4 days", "result": "inhibit TRAP activity"},
      {"measurement": "TRAP activity inhibition actions relative to the initial level (peptide D)", "setting": "RAW264 cells; [1]", "result": "one-half"},
      {"measurement": "ALP activity", "setting": "MC3T3-E1 cells; 25, 50, 100 and 200 μM, 5 days", "result": "enhance ALP activity in a concentration-dependent manner"},
      {"measurement": "ALP activity enhancement actions relative to the initial level (peptide D)", "setting": "MC3T3-E1 cells; [1]", "result": "approximately ¼"},
      {"measurement": "affinity to sRANKL relative to the initial level (peptide D)", "setting": "RANKL", "result": "approximately ⅓"}
    ]},
    {"molecule": "GST-RANKL: GST fusion protein with amino acids 140 to 317 of human RANKL (SEQ ID NO: 15)", "values": [
      {"measurement": "inhibition of synergistic ALP activity enhancement of peptide D (acetate) and BMP-2", "setting": "MC3T3-E1 cells; 100 nM, 100 μM peptide D acetate + 5 ng/mL BMP-2, Day 5", "result": "significantly inhibited synergistic effects"},
      {"measurement": "HE staining of cerebrum, lungs, heart, liver, thymus, spleen, kidneys, skin", "setting": "C57BL/6N mice; any group (57 nmol, 426 nmol)", "result": "abnormal findings and naturally occurring lesions were not observed"},
      {"measurement": "osteoclast number", "setting": "C57BL/6N mice; [2]", "result": "increased"},
      {"measurement": "trabecular number", "setting": "C57BL/6N mice; [2]", "result": "approximately 50%"},
      {"measurement": "unit bone mass", "setting": "C57BL/6N mice; [2]", "result": "approximately 50%"},
      {"measurement": "osteoblast surface area", "setting": "C57BL/6N mice; high-dose administration", "result": "significantly increased"},
      {"measurement": "femur bone morphology by μCT", "setting": "C57BL/6N mice; high-dose administration group", "result": "significant bone decrease"},
      {"measurement": "unit bone mass and trabecular number", "setting": "C57BL/6N mice; low dose 57 nmol i.p. every 24 hours, three times", "result": "no such decrease was observed"}
    ]},
    {"molecule": "Fc fusion peptide A: fusion protein of peptide A (SEQ ID NO: 47, YCAAAAACY) and Fc; negative control [reference compound]", "values": [
      {"measurement": "ALP activity", "setting": "MC3T3-E1 cells; concentrated COS-1 culture supernatant diluted with αMEM, Day 5", "result": "such ALP activity enhancement action was not observed"}
    ]},
    {"molecule": "Dkk-1: rhDkk-1 (R&D), Wnt antagonist (protein, UniProt O94907 32-266, looked up) Dickkopf-related protein 1: TLNSVLNSNAIKNLPPPLGGAAGHPGSAVSAAPGILYPGGNKYQTIDNYQPYPCAEDEECGTDEYCASPTRGGDAGVQICLACRKRRKRCMRHAMCCPGNYCKNGICVSSDQNHFRGEIEETITESFGNDHSTLDGYSRRTTLSSKMYHTKGQEGSVCLRSSDCASGLCCARHFWSKICKPVLKEGQVCTKHRRKGSHGLEIFQRCYCGEGLSCRIQKDHHQASNSSRLHTCQRH", "values": [
      {"measurement": "inhibition of ALP activity enhancement caused by peptide D", "setting": "MC3T3-E1 cells; rhDkk-1 0.25, 0.5 and 1 μg/ml, 5 days", "result": "weakly but significantly inhibit"}
    ]},
    {"molecule": "BMPR-IA: BMPR-IA (R&D), BMP antagonist (protein, UniProt P36894 24-152, looked up, extracellular domain soluble reagent, BMPR-IA (R&D), BMP antagonist) extracellular domain: QNLDSMLHGTGMKSDSDQKKSENGVTLAPEDTLPFLKCYCSGHCPDDAINNTCITNGHCFAIIEEDDQGETTLASGCMKYEGSDFQCKDSPKAQLRRTIECCRTNLCNQYLQPTLPPVVIGPFFDGSIR", "values": [
      {"measurement": "inhibition of ALP activity enhancement caused by peptide D and BMP-2", "setting": "MC3T3-E1 cells; BMPR-IA 0.25 and 1 μg/ml, 200 μM peptide D or 200 ng/ml BMP-2, 5 days", "result": "significantly inhibit"}
    ]}
  ]
}
